How the values were obtained:
in vitro = conditions: human, Caco-2
SD rats = conditions: 100 mg/kg by gavage every 8 h for 7 days, means ± SEM, n = 8

Papp A→B at 120 min, 2 μmol/L (in vitro) [×10⁻⁶ cm/s] | Serum Cl (SD rats) [mmol/L] | SMILES
13.1 ± 0.65 |  | COCCc1ccc(OCC(O)CNC(C)C)cc1 (centres unmarked) [metoprolol]
 | 101.7 ± 1.3 | CC(=O)Nc1ccc(NC(=O)c2ccc([N+](=O)[O-])o2)cc1 [1H, N-(4-Acetamidophenyl)-5-nitrofuran-2-carboxamide]

— paper PMC7838058 (Acta Pharmaceutica Sinica. B, 2020)
